Tests used:
[1] = target: T1, Tuberculosinyl adenosine transferase (Mycobacterium tuberculosis (strain CDC 1551 / Oshkosh), UniProt P9WJ60); test: Rv3378c Inhibition Assay
T1 sequence (P9WJ60 whole entry): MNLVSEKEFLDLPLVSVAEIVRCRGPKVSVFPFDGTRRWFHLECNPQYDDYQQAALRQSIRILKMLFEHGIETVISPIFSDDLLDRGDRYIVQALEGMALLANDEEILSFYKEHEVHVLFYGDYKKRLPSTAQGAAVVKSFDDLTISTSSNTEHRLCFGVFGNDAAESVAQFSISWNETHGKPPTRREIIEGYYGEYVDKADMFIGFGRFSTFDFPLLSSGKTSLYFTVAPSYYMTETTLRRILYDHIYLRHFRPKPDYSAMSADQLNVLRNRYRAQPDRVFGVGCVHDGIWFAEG
Method: For inhibition assay of Rv3378c, using tuberculosinyl diphosphate and adenosine as substrates, a mixture of 100 µM TPP, 100 µM adenosine,75 µg/mL Rv3378c, and inhibitors in the assay buffer (25 mM Tris-HCl, 1 mM MgCl2, 0.01% Triton-X-100) was incubated for 2 h at 37 °C.

[2] = target: T2, Decaprenyl diphosphate synthase (Mycobacterium tuberculosis (strain CDC 1551 / Oshkosh), UniProt P9WFF6); test: DPPS Inhibition (GPP based) Assay; details: pH 7.5
T2 sequence (P9WFF6 whole entry): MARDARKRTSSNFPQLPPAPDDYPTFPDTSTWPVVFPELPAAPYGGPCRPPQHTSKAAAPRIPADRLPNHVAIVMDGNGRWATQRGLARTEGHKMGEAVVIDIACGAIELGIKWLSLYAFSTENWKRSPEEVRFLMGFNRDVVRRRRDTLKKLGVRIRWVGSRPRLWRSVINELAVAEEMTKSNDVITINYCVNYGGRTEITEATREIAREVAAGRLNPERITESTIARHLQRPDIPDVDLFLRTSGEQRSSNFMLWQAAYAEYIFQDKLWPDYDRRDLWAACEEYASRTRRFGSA
Source text: We screened an in-house library of 43 compounds using GPP as substrate.

[3] = target: T2, Decaprenyl diphosphate synthase; test: DPPS Inhibition (cis FPP based) Assay; details: pH 7.5
Source text: We screened an in-house library of 19 compounds using cis-FPP as substrate.

[4] = target: T2, Decaprenyl diphosphate synthase; test: DPPS Inhibition (trans FPP based) Assay; details: pH 7.5
Source text: We screened an in-house library of 53 compounds using trans-FPP as substrate.

Structure (SMILES) | IC50 [1] [µM] | IC50 [2] [µM] | IC50 [3] [µM] | IC50 [4] [µM]
O=C(Nc1cccc(C2=NCCN2)c1)c1ccc(-c2ccc(C(=O)Nc3cccc(C4=NCCN4)c3)cc2)cc1 [50460, 14] | 96 | – | – | –
C(=C\c1cc2ccc(C3=NCCN3)cc2[nH]1)/c1cc2ccc(C3=NCCN3)cc2[nH]1 [BPH-1417] | 0.66 | 0.49 | 20 | –
CCCCCCCCOc1cccc(C(=O)Nc2ccc([N+](=O)[O-])cc2C(=O)O)c1 [BPH-1247] | – | 0.119 | 49 | –
O=C(O)c1ccccc1SCc1cccc(Oc2ccccc2)c1 [BPH-1125] | – | 1.2 | 30 | –
CCCCCCCCOc1cccc(COc2ccc(S(=O)(=O)N3CCOCC3)cc2C(=O)O)c1 [BPH-1158] | – | 1.4 | 83 | –
O=P(O)(O)C(O)(Cc1cccc(-c2cccc3c2oc2ccccc23)c1)P(=O)(O)O [[1-hydroxy-2-(3-{8-oxatricyclo[7.4.0.0^{2,7}]trideca-1(13),2,4,6,9,11-hexaen-6-yl}phenyl)-1-phosphonoethyl]phosphonic acid] | 0.21 | – | – | 19
O=P(O)(O)C(O)(c1cccc(-c2cccc(-c3ccccc3)c2)c1)P(=O)(O)O [BPH-640] | – | 0.41 | 0.61 | –
CCCCCCCCOc1cccc(C(=O)Nc2cccc(C(=O)O)c2C(O)O)c1 [BPH-1461] | – | 0.164 | 55 | –
CCCCCCCCOc1cccc(C(=O)Nc2cc(OC)c(OC)cc2C(=O)O)c1 [BPH-1294] | – | 0.205 | 62 | –
CCCCCCCCOc1cccc(C(=O)Nc2ccc(Br)cc2C(=O)O)c1 [BPH-1264] | – | 0.068 | 11 | –
CCCCCCCCOc1cc(O)cc(COc2ccc(Br)cc2C(=O)O)c1 [BPH-1311] | – | 2.9 | 56 | –
